target: T1, mushroom tyrosinase (Agaricus bisporus, UniProt C7FF04); experiment: not given; settings: read-out: Tyrosinase inhibitory activity IC50
T1 sequence (C7FF04 1-392 limits assumed): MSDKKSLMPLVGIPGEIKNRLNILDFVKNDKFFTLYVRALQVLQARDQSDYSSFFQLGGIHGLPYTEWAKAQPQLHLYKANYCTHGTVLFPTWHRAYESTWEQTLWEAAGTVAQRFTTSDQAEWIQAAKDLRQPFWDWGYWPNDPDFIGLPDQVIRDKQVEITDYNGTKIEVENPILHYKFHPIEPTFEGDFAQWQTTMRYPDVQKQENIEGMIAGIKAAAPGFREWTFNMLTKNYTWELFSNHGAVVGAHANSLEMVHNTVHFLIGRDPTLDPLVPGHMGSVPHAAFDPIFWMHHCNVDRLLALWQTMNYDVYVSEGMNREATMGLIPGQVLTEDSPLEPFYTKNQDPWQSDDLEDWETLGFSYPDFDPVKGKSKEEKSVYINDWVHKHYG

SMILES | IC50 [µM]
Cc1ccccc1CC(=O)Nc1nnc(SCc2cn(Cc3cc(=O)c(O)co3)nn2)s1 [Compound 6j, N-(5-(((1-((5-hydroxy-4-oxo-4H-pyran-2-yl)methyl)-1H-1,2,3-triazol-4-yl)met-hyl)thio)-1,3,4-thiadiazol-2-yl)-2-(o-tolyl)acetamide] | 17.26 ± 0.038
Cc1cccc(CC(=O)Nc2nnc(SCc3cn(Cc4cc(=O)c(O)co4)nn3)s2)c1 [Compound 6k, N-(5-(((1-((5-hydroxy-4-oxo-4H-pyran-2-yl)methyl)-1H-1,2,3-triazol-4-yl)met-hyl)thio)-1,3,4-thiadiazol-2-yl)-2-(m-tolyl)acetamide] | 13.81 ± 0.066
Cc1ccc(CC(=O)Nc2nnc(SCc3cn(Cc4cc(=O)c(O)co4)nn3)s2)cc1 [Compound 6l, N-(5-(((1-((5-hydroxy-4-oxo-4H-pyran-2-yl)methyl)-1H-1,2,3-triazol-4-yl)met-hyl)thio)-1,3,4-thiadiazol-2-yl)-2-(p-tolyl)acetamide] | 3.289 ± 0.011
COc1ccc(CC(=O)Nc2nnc(SCc3cn(Cc4cc(=O)c(O)co4)nn3)s2)cc1 [Compound 6p, N-(5-(((1-((5-hydroxy-4-oxo-4H-pyran-2-yl)methyl)-1H-1,2,3-triazol-4-yl)met-hyl)thio)-1,3,4-thiadiazol-2-yl)-2-(4-methoxyphenyl)acetamide] | 3.832 ± 0.005

target: T1, mushroom tyrosinase; experiment: biochemical; settings: not given

SMILES | IC50 [µM]
O=C(Nc1nnc(SCc2cn(Cc3cc(=O)c(O)co3)nn2)s1)c1ccccc1 [Compound 6a, N-(5-(((1-((5-hydroxy-4-oxo-4H-pyran-2-yl)methyl)-1H-1,2,3-triazol-4-yl)meth-yl)thio)-1,3,4-thiadiazol-2-yl)benzamide] | 20.59 ± 0.037
Cc1ccccc1C(=O)Nc1nnc(SCc2cn(Cc3cc(=O)c(O)co3)nn2)s1 [Compound 6b, N-(5-(((1-((5-hydroxy-4-oxo-4H-pyran-2-yl)methyl)-1H-1,2,3-triazol-4-yl)meth-yl)thio)-1,3,4-thiadiazol-2-yl)-2-methylbenzamide] | > 200
Cc1cccc(C(=O)Nc2nnc(SCc3cn(Cc4cc(=O)c(O)co4)nn3)s2)c1 [Compound 6c, N-(5-(((1-((5-hydroxy-4-oxo-4H-pyran-2-yl)methyl)-1H-1,2,3-triazol-4-yl)meth-yl)thio)-1,3,4-thiadiazol-2-yl)-3-methylbenzamide] | > 200
Cc1ccc(C(=O)Nc2nnc(SCc3cn(Cc4cc(=O)c(O)co4)nn3)s2)cc1 [Compound 6d, N-(5-(((1-((5-hydroxy-4-oxo-4H-pyran-2-yl)methyl)-1H-1,2,3-triazol-4-yl)meth-yl)thio)-1,3,4-thiadiazol-2-yl)-4-methylbenzamide] | > 200
O=C(Nc1nnc(SCc2cn(Cc3cc(=O)c(O)co3)nn2)s1)c1ccc(Cl)cc1 [Compound 6e, 4–CHloro-N-(5-(((1-((5-hydroxy-4-oxo-4H-pyran-2-yl)methyl)-1H-1,2,3-triazol-4-yl)methyl)thio)-1,3,4-thiadiazol-2-yl)benzamide] | 6.073 ± 0.035
O=C(Nc1nnc(SCc2cn(Cc3cc(=O)c(O)co3)nn2)s1)c1ccc(F)cc1 [Compound 6g, 4-fluoro-N-(5-(((1-((5-hydroxy-4-oxo-4H-pyran-2-yl)methyl)-1H-1,2,3-triazol-4-yl)methyl)thio)-1,3,4-thiadiazol-2-yl)benzamide] | 8.24 ± 0.023
COc1ccc(C(=O)Nc2nnc(SCc3cn(Cc4cc(=O)c(O)co4)nn3)s2)cc1 [Compound 6h, N-(5-(((1-((5-hydroxy-4-oxo-4H-pyran-2-yl)methyl)-1H-1,2,3-triazol-4-yl)meth-yl)thio)-1,3,4-thiadiazol-2-yl)-4-methoxybenzamide] | 5.56 ± 0.078
Nc1ccc(C(=O)Nc2nnc(SCc3cn(Cc4cc(=O)c(O)co4)nn3)s2)cc1 [Compound 6i, 4-amino-N-(5-(((1-((5-hydroxy-4-oxo-4H-pyran-2-yl)methyl)-1H-1,2,3-triazol-4-yl)methyl)thio)-1,3,4-thiadiazol-2-yl)benzamide] | 16.31 ± 0.016
O=C(Cc1ccc(Cl)cc1)Nc1nnc(SCc2cn(Cc3cc(=O)c(O)co3)nn2)s1 [Compound 6m, 2-(4–CHlorophenyl)-N-(5-(((1-((5-hydroxy-4-oxo-4H-pyran-2-yl)methyl)-1H-1,2,3-triazol-4-yl)methyl)thio)-1,3,4-thiadiazol-2-yl)acetamide] | 10.17 ± 0.032
O=C(Cc1ccc(Br)cc1)Nc1nnc(SCc2cn(Cc3cc(=O)c(O)co3)nn2)s1 [Compound 6n, 2-(4-bromophenyl)-N-(5-(((1-((5-hydroxy-4-oxo-4H-pyran-2-yl)methyl)-1H-1,2,3-triazol-4-yl)methyl)thio)-1,3,4-thiadiazol-2-yl)acetamide] | 12.36 ± 0.039
O=C(Cc1ccc(F)cc1)Nc1nnc(SCc2cn(Cc3cc(=O)c(O)co3)nn2)s1 [Compound 6o, 2-(4-fluorophenyl)-N-(5-(((1-((5-hydroxy-4-oxo-4H-pyran-2-yl)methyl)-1H-1,2,3-triazol-4-yl)methyl)thio)-1,3,4-thiadiazol-2-yl)acetamide] | 11.98 ± 0.022
O=Cc1cccc(OCc2cn(Cc3cc(=O)c(O)co3)nn2)c1 [Compound 13a, 3-((1-((5-hydroxy-4-oxo-4H-pyran-2-yl)methyl)-1H-1,2,3-triazol-4-yl)methoxy)-benzaldehyde] | 2.474 ± 0.023
CC(=O)c1cccc(OCc2cn(Cc3cc(=O)c(O)co3)nn2)c1 [Compound 13b, 2-((4-((3-acetylphenoxy)methyl)-1H-1,2,3-triazol-1-yl)methyl)-5-hydroxy-4H-pyran-4-one] | 4.604 ± 0.046
O=Cc1ccc(OCc2cn(Cc3cc(=O)c(O)co3)nn2)cc1 [Compound 13c, 4-((1-((5-hydroxy-4-oxo-4H-pyran-2-yl)methyl)-1H-1,2,3-triazol-4-yl)methoxy)benzaldehyde] | 4.55 ± 0.062
CC(=O)c1ccc(OCc2cn(Cc3cc(=O)c(O)co3)nn2)cc1 [Compound 13d, 2-((4-((4-acetylphenoxy)methyl)-1H-1,2,3-triazol-1-yl)methyl)-5-hydroxy-4H-pyran-4-one] | 9.908 ± 0.044
O=Cc1ccc(F)cc1OCc1cn(Cc2cc(=O)c(O)co2)nn1 [Compound 13f, 4-fluoro-2-((1-((5-hydroxy-4-oxo-4H-pyran-2-yl)methyl)-1H-1,2,3-triazol-4-yl)methoxy)benzaldehyde] | 5.961 ± 0.036
O=Cc1ccccc1OCc1cn(Cc2cc(=O)c(O)co2)nn1 [Compound 13g, 2-((1-((5-hydroxy-4-oxo-4H-pyran-2-yl)methyl)-1H-1,2,3-triazol-4-yl)methoxy)benzaldehyde] | 2.1 ± 0.078
CC(=O)c1ccccc1OCc1cn(Cc2cc(=O)c(O)co2)nn1 [Compound 13k, 2-((4-((2-acetylphenoxy)methyl)-1H-1,2,3-triazol-1-yl)methyl)-5-hydroxy-4H-pyran-4-one] | 1.517 ± 0.01
CC(C)(C)c1cccc(C=O)c1OCc1cn(Cc2cc(=O)c(O)co2)nn1 [Compound 13l, 3-(tert-butyl)-2-((1-((5-hydroxy-4-oxo-4H-pyran-2-yl)methyl)-1H-1,2,3-triazol-4-yl)methoxy)benzaldehyde] | 4.98 ± 0.057
O=Cc1ccc(Cl)cc1OCc1cn(Cc2cc(=O)c(O)co2)nn1 [Compound 13m, 4–CHloro-2-((1-((5-hydroxy-4-oxo-4H-pyran-2-yl)methyl)-1H-1,2,3-triazol-4-yl)methoxy)benzaldehyde] | 4.571 ± 0.004
O=Cc1ccc(Br)cc1OCc1cn(Cc2cc(=O)c(O)co2)nn1 [Compound 13p, 4-bromo-2-((1-((5-hydroxy-4-oxo-4H-pyran-2-yl)methyl)-1H-1,2,3-triazol-4-yl)methoxy)benzaldehyde] | 4.231 ± 0.029

Source: article PMC12041489 (Scientific Reports, 2025)
